1 compound from patent publication US10123996B2, “Macrocyclic lactone compounds and methods for their use” (Elixir Medical Corporation, priority 2006, dated 2018) can be followed below.

What all share (assay type): cell-based
Experiment [1] relates to IL-6 released by activated macrophages. The experiment is described as follows: cytokine inhibition in LPS-activated macrophages, ELISA: IL-6. To be noted: 10 nM. On the procedure: (§1) In cell culture studies, macrophages were activated to secrete cytokines such as 11-6, MMP-9, MCP-1 and IL-10 by treating the cells to E Coli lippopolysaccharide (LPS). Inhibition of these cytokines upon treatment of the activated macrophages with Compound AR and rapamycin with 10 nM concentration was tested using ELISA assay. The inhibition of pro-inflammatory and cell proliferation and migration inducing cytokines upon exposure to the macrocyclic lactone is presented in FIG. 12A. The inhibition of anti-inflammatory cytokine IL-10 upon exposure to macrocyclic lactone Compound AR and Sirolimus are presented in FIG. 12B.
For orientation: An ELISA detects its analyte on a solid surface through an enzyme-linked reagent.

Experiment [2] relates to IL-10 released by activated macrophages. Nature of the experiment: cytokine inhibition in LPS-activated macrophages, ELISA: IL-10. The settings on record: 10 nM. Here is the method: as §1
Experiment [3] deals with MCP-1 released by activated macrophages. The experiment is described as follows: cytokine inhibition in LPS-activated macrophages, ELISA: MCP-1. The settings on record: 10 nM. On the procedure:
as §1

The test system of experiment [4] is human smooth muscle cells. The experiment is described as follows: in vitro human smooth muscle cell culture testing, incorporated thymidine (proliferation). The settings on record: for % Proliferation After One Hr Exposure: 1 hr exposure; for % Proliferation After Three Hr Exposure: 3 hr exposure; for % Proliferation After Eight Hr Exposure: 8 hr exposure; for IC50: Homo sapiens. On the procedure:
The amounts of incorporated thymidine for samples of Compound AR of varying concentrations (0.005, 0.01, 0.05, 0.1, 0.5, and 1 μM) and of rapamycin of varying concentrations (0.0005, 0.001, 0.01, and 0.1 μM) were measured after exposure for different times of 1, 3 and 8 hours. The IC50 for Compound AR and rapamycin were approximately 0.05 and 0.01 μM, respectively, after smooth muscle cells were exposed to Compound AR and rapamycin for the shorter periods of 1 and 3 hours (as shown in Table 1 and FIG. 8). The IC50 of Compound AR and rapamycin was approximately 0.005 and 0.001 μM, respectively, after smooth muscle cells were exposure to Compound AR and rapamycin for 8 hours. The IC50 of Compound AR was approximately five times higher than that of rapamycin.
The amounts of incorporated thymidine for samples of 17, 18-29, 30-bis-epoxide macrocyclic lactone of varying concentrations (0.005, 0.01, 0.05, 0.1, 0.5, and 1 μM) and of Compound AR of varying concentrations (0.0005, 0.001, 0.01, and 0.1 μM) were measured after exposure for 8 hours. The IC50 of 17, 18-29, 30-bis-epoxide macrocyclic lactone and Compound AR was approximately 0.1 and 0.005 μM, respectively, after smooth muscle cells were exposed to 17, 18-29, 30-bis-epoxide macrocyclic lactone and Compound AR for 8 hours (FIG. 13). The IC50 of 17, 18-29, 30-bis-epoxide macrocyclic lactone was approximately 20 times higher than that of Compound AR.

The subject of experiment [5] is MMP-9 released by activated macrophages. The experiment is described as follows: cytokine inhibition in LPS-activated macrophages, ELISA: MMP-9. The settings on record: 10 nM. Here is the method:
as §1

Molecules are shown by their SMILES.

The IC50 is the concentration that gives 50% inhibition. On to `CO[C@@H]1C[C@H](C[C@@H](C)[C@@H]2CC(=O)[C@H](C)/C=C(\C)[C@@H](O)[C@@H](OC)C(=O)[C@H](C)C[C@H](C)/C=C/C=C/C=C(\C)C(O)C[C@@H]3CC[C@@H](C)C(O)(O3)C(=O)C(=O)N3CCCC[C@H]3C(=O)O2)CC[C@H]1O` (stereo partly drawn) [Compound AR, 16-O-Demethyl Macrocyclic Lactone], for which the “inhibition of release of IL-6” value in experiment [1] is “did not show and significant inhibition”. The “production of anti-inflammatory cytokine IL-10” value in experiment [2] is “inhibit the production”. The “production of MCP-1” value in experiment [3] was “significantly reduced the production”. The “% Proliferation After One Hr Exposure” value is given as 84% in experiment [4] (0.005 micromolar); 66% in experiment [4] (0.01 micromolar); 54% in experiment [4] (0.05 micromolar); 55% in experiment [4] (0.1 micromolar); 57% in experiment [4] (0.5 micromolar). Further, the “% Proliferation After Three Hr Exposure” value in experiment [4] (0.005 micromolar) came out at 69%; in experiment [4] (0.01 micromolar), 56%; in experiment [4] (0.05 micromolar), 50%; in experiment [4] (0.1 micromolar), 52%; in experiment [4] (0.5 micromolar) it was 48%. Also, the “% Proliferation After Eight Hr Exposure” value was 52% in experiment [4] (0.005 micromolar); 38% in experiment [4] (0.01 micromolar); 40% in experiment [4] (0.05 micromolar); 36% in experiment [4] (0.1 micromolar); 35% in experiment [4] (0.5 micromolar). The IC50 in experiment [4] (smooth muscle cells exposed for 8 hours) was ~5 nM; in experiment [4] (smooth muscle cells exposed for the shorter periods of 1 and 3 hours), ~50 nM. Also, in experiment [5], the “production of MMP-9” value is “significantly reduced the production”.
